Laboratory results taken from ChEMBL document CHEMBL6103648, “AI-Driven Discovery of Highly Specific and Efficacious hCES2A Inhibitors for Ameliorating Irinotecan-Triggered Gut Toxicity” (J Med Chem, 2025).
pIC50: −log10 of the molar value.

Assay: Inhibition of human CES2A using fluorescein diacetate as substrate preincubated for 3 mins followed by substrate addition measured after 30 mins by fluorescence based assay
For CCN(C)C(=O)Oc1ccc(C(=O)N2CCC(C(=O)c3ccc(F)cc3)CC2)cc1OC, the pIC50 was 7.99. For CCN(C)C(=O)Oc1ccc(CCC(=O)N2CCc3ccccc3C2)cc1, the pIC50 was 8.13. In the case of CCN(C)C(=O)Oc1ccc(C(=O)N2CCC(Cc3ccc(F)cc3)CC2)cc1OC, the pIC50 was 8.88. Molecule CCN(CC)C(=O)Oc1ccc(CCC(=O)N2CCC(Cc3ccccc3)CC2)cc1OC has a pIC50 of 7.47. For CN(C)C(=O)C(CCN1CCC(O)(c2ccc(Cl)cc2)CC1)(c1ccccc1)c1ccccc1 [LOPERAMIDE], the pIC50 was 6.39. CCN(C)C(=O)Oc1ccc(C(=O)N2CCc3ccccc3C2)cc1OC gave a pIC50 of 8.69. With CNC(=O)COc1ccc(C(C)=O)cc1OC the pIC50 was 6.34. With CCN(C)C(=O)Oc1ccc(/C=C/C(=O)N2CCC(Cc3ccccc3)CC2)cc1 the pIC50 was 8.84. Work on CCN(C)C(=O)Oc1ccc(CCC(=O)N2CCC(Cc3ccccc3)CC2)cc1OC yielded a pIC50 of 8.48. For CCOc1cc(C(=O)N2CCC(Cc3ccccc3)CC2)ccc1OC(=O)N(C)CC, the pIC50 was 8.95. Molecule CCN(C)C(=O)Oc1ccc(CCC(=O)N2CCc3ccccc3C2)cc1OC has a pIC50 of 8.22. Molecule CCN(C)C(=O)Oc1ccc(C(=O)N2CCC(Cc3ccccc3)CC2)cc1OCC1CC1 has a pIC50 of 8.99. CCN(C)C(=O)Oc1ccc(C(=O)N2CCN(Cc3ccccc3)CC2)cc1OC gave a pIC50 of 8.23. Work on CCN(C)C(=O)Oc1ccc(CCC(=O)N2CCN(Cc3ccccc3)CC2)cc1OC yielded a pIC50 of 7.24. CCN(C)C(=O)Oc1ccc(CCC(=O)N2CCC(c3ccccc3)CC2)cc1OC gave a pIC50 of 8.31. COc1cc(CCC(=O)N2CCC(Cc3ccccc3)CC2)ccc1OC(=O)N(C)C gave a pIC50 of 8.39. In the case of COc1cc(CCC(=O)N2CCC(Cc3ccccc3)CC2)ccc1OC(=O)N1CCOCC1, the pIC50 was 8.14. CCN(C)C(=O)Oc1ccc(C(=O)N2CCC(c3ccccc3)CC2)cc1OC showed a pIC50 of 8.83. With CCN(C)C(=O)Oc1ccc(/C=C/C(=O)N2CCC(c3ccccc3)CC2)cc1OC the pIC50 was 8.50. Work on CCN(C)C(=O)Oc1ccc(C(=O)N2CCC(CCCc3ccccc3)CC2)cc1OC yielded a pIC50 of 8.53. With CCN(CC)C(=O)COc1ccc(C(C)=O)cc1OC the pIC50 was 6.34.
